Measurements published in ChEMBL document CHEMBL5096207, “Identification of a Hydroxypyrimidinone Compound (21) as a Potent APJ Receptor Agonist for the Potential Treatment of Heart Failure” (J Med Chem, 2021).

Assays:
Apelin receptor = molecular target: T1, Apelin receptor (Homo sapiens, UniProt P35414); assay: Agonist activity at human APJ expressed in HEK293 cells assessed as inhibition of forskolin-stimulated cAMP production incubated for 60 mins by fluorescence based analysis
T1 sequence (P35414 whole entry): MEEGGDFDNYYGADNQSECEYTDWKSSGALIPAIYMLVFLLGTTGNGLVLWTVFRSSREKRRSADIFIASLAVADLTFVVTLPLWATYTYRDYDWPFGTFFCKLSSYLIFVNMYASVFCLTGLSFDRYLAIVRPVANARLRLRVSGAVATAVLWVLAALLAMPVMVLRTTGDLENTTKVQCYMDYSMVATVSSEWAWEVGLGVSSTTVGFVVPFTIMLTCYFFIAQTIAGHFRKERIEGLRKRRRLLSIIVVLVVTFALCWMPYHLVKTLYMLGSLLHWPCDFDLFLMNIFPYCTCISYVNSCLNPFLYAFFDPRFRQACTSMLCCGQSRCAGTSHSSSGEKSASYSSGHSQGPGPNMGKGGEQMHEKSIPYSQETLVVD

[1] = Volume of distribution in overnight fasted Sprague-Dawley rat at 1 mg/kg, po or 1 mg/kg, iv measured upto 48 hrs by LC/MS/MS analysis; format: ADME, organism-based; details: in vivo
[2] = Cmax in overnight fasted Sprague-Dawley rat at 1 mg/kg, po or 1 mg/kg, iv measured upto 48 hrs by LC/MS/MS analysis; format: ADME, organism-based; design: time < 48 hrs, dose 1 mg/kg, route po; details: in vivo
[3] = AUC (0 to 24hrs) in overnight fasted Sprague-Dawley rat at 1 mg/kg, po or 1 mg/kg, iv measured upto 48 hrs by LC/MS/MS analysis; format: ADME, organism-based; design: time < 48 hrs, dose 1 mg/kg, route po; details: in vivo
[4] = Oral bioavailability in overnight fasted Sprague-Dawley rat at 1 mg/kg measured upto 48 hrs by LC/MS/MS analysis; format: ADME, organism-based; details: in vivo
[5] = Volume of distribution at steady state in overnight fasted cynomolgus monkey at 3 mg/kg, po or 1 mg/kg, iv measured upto 72 hrs by LC/MS/MS analysis; format: ADME, organism-based, Macaca fascicularis; details: in vivo
[6] = Cmax in overnight fasted cynomolgus monkey at 3 mg/kg, po or 1 mg/kg, iv measured upto 72 hrs by LC/MS/MS analysis; format: ADME, organism-based, Macaca fascicularis; design: time < 72 hrs, dose 3 mg/kg, route po; details: in vivo
[7] = AUC (0 to 24hrs) in overnight fasted cynomolgus monkey at 3 mg/kg, po or 1 mg/kg, iv measured upto 72 hrs by LC/MS/MS analysis; format: ADME, organism-based, Macaca fascicularis; design: time < 72 hrs, dose 3 mg/kg, route po; details: in vivo
[8] = Oral bioavailability in overnight fasted cynomolgus monkey at 3 mg/kg measured upto 72 hrs by LC/MS/MS analysis; format: ADME, organism-based, Macaca fascicularis; details: in vivo
[9] = Volume of distribution at steady state in dog at 1 mg/kg, po or 1 mg/kg, iv by LC/MS/MS analysis; format: ADME, organism-based, Canis lupus familiaris; details: in vivo
[10] = Cmax in dog at 1 mg/kg, po or 1 mg/kg, iv by LC/MS/MS analysis; format: ADME, organism-based, Canis lupus familiaris; design: dose 1 mg/kg, route po; details: in vivo
[11] = AUC (0 to 24hrs) in dog at 1 mg/kg, po or 1 mg/kg, iv by LC/MS/MS analysis; format: ADME, organism-based, Canis lupus familiaris; design: dose 1 mg/kg, route po; details: in vivo
[12] = Oral bioavailability in dog at 1 mg/kg by LC/MS/MS analysis; format: ADME, organism-based, Canis lupus familiaris; details: in vivo
[13] = Drug excretion in Sprague-Dawley rat urine at 1 mg/kg, iv; format: ADME, organism-based; details: read-out: Drug excretion
[14] = Drug excretion in dog urine at 1 mg/kg, iv; format: ADME, organism-based, Canis lupus familiaris; details: read-out: Drug excretion
[15] = Toxicity in Sprague-Dawley rat assessed as hemodynamic reponse by measuring increase in heart rate at 0.001 to 0.1 mg/kg/min, iv infusion administered for 15 mins by PV-loop based analysis; format: organism-based; details: in vivo, dose 0.001-0.1 mg/kg/min

Row | EC50 (Apelin receptor) [nM] | Vdss [1] [L/kg] | Cmax [2] [nM] | AUC(0-t) at 48 h [3] [µM·h] | bioavailability [4] [%] | Vdss [5] [L/kg] | Cmax [6] [nM] | AUC(0-t) at 72 h [7] [µM·h] | bioavailability [8] [%] | Vdss [9] [L/kg] | Cmax [10] [nM] | AUC(0-t) [11] [µM·h] | bioavailability [12] [%] | dose excreted [13] [%] | dose excreted [14] [%] | SMILES | Activity [15]
1 | 0.4 |  |  |  |  |  |  |  |  |  |  |  |  |  |  | CCOCc1nc(=O)c(C(=O)N2CC[C@H](c3ccccc3)C2)c(O)n1-c1c(OC)cccc1OC | 
2 |  | 1.6 | 2200 | 3.7 | 54 | 0.2 | 1400 | 2.5 | 27 | 0.2 | 6500 | 14.2 | 76 | 4 | < 4 | CCc1cccc(CC)c1-n1c(-c2ccn(C)n2)nc(=O)c(C(=O)N2CC[C@@H](c3ncc(Cl)cc3F)C2)c1O | Non-Toxic
3 |  |  |  |  |  |  |  |  |  |  |  |  |  |  |  | CC(CCc1ccc(O)cc1)NCCc1ccc(O)c(O)c1 (configuration not stated) [DOBUTAMINE] | Toxic
